Each target was assayed with NC(=O)CCCCC1CCSS1 [lipoamide] (assay: thermal stability z-score vs DMSO; higher = more thermally stabilized by treatment). Settings: HeLa; lipoamide concentration 100 µM; arsenate co-treatment: 1 mM arsenate 1 h.
Procedure: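 Cellular thermal proteome profiling in HeLa cells. Cells were treated with 100 µM lipoamide for 1 h, with or without 1 mM arsenate for a further 1 h, then heated to ten temperatures (37-66.3 °C), and soluble protein was quantified by TMT mass spectrometry relative to 0.1% DMSO controls. The thermal stability score (sum of log2 fold changes minus the abundance score) was transformed to a z-score; mean of n = 3 experiments.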
UniProt P53041, sequence (P53041 whole entry): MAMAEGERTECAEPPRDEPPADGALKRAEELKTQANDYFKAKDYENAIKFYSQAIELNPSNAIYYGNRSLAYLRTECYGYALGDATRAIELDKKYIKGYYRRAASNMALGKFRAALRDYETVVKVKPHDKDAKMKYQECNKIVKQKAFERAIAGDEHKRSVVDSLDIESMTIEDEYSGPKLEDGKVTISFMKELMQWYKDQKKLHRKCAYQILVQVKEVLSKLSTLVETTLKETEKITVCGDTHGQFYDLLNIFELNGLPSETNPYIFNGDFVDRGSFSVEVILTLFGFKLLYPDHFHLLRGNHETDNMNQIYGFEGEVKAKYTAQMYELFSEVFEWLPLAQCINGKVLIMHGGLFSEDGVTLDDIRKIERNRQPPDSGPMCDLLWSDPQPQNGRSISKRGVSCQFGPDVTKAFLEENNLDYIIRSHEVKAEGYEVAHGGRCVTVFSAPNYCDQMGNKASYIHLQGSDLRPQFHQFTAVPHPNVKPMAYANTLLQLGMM
UniProt Q969M3, sequence (Q969M3 whole entry): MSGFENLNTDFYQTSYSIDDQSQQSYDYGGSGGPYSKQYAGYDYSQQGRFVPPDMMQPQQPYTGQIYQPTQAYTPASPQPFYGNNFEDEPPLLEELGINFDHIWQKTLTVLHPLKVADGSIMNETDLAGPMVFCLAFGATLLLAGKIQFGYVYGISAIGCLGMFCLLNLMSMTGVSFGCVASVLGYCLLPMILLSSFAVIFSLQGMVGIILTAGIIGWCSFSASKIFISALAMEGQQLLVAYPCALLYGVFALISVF
UniProt Q6P6C2, sequence (Q6P6C2 whole entry, looked up): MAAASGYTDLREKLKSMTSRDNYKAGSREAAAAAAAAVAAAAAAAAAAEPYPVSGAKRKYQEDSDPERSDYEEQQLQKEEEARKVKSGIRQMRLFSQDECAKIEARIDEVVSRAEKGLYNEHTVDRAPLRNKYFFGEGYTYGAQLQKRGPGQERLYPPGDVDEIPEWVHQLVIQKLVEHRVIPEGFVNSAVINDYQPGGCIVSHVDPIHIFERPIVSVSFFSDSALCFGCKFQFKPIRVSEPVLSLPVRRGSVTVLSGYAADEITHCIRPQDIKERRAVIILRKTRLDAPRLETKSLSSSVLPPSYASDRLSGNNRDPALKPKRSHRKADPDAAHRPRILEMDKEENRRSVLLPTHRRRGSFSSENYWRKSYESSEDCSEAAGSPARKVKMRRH
UniProt Q86YM7, sequence (Q86YM7 whole entry): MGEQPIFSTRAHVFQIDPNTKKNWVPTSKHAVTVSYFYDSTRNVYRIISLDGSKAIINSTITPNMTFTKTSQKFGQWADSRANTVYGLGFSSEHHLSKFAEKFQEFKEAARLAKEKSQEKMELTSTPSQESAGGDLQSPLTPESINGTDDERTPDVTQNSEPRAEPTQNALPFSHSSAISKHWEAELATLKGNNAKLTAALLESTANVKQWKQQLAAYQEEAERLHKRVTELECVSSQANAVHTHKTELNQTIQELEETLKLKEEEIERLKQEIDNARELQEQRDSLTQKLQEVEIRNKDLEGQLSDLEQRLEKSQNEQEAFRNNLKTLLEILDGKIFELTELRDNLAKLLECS
UniProt Q9H6V9, sequence (Q9H6V9 whole entry): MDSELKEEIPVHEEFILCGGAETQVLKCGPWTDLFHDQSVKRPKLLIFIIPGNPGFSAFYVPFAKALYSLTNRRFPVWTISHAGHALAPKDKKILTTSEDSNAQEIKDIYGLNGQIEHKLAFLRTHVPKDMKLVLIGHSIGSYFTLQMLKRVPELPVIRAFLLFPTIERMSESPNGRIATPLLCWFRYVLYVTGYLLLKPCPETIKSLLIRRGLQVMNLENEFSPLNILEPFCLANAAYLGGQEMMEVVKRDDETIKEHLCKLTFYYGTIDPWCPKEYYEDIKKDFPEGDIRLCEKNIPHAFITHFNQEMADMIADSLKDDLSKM
UniProt Q9H1E5, sequence (Q9H1E5 whole entry): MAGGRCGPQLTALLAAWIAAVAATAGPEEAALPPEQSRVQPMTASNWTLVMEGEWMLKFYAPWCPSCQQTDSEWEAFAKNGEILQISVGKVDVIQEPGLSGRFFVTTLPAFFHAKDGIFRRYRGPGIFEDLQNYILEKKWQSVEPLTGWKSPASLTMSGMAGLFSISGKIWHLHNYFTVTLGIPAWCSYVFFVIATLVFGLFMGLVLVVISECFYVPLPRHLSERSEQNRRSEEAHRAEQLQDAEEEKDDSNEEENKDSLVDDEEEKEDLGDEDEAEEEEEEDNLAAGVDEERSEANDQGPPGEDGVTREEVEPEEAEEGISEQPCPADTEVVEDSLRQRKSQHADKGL
UniProt Q58A45, sequence (Q58A45 whole entry): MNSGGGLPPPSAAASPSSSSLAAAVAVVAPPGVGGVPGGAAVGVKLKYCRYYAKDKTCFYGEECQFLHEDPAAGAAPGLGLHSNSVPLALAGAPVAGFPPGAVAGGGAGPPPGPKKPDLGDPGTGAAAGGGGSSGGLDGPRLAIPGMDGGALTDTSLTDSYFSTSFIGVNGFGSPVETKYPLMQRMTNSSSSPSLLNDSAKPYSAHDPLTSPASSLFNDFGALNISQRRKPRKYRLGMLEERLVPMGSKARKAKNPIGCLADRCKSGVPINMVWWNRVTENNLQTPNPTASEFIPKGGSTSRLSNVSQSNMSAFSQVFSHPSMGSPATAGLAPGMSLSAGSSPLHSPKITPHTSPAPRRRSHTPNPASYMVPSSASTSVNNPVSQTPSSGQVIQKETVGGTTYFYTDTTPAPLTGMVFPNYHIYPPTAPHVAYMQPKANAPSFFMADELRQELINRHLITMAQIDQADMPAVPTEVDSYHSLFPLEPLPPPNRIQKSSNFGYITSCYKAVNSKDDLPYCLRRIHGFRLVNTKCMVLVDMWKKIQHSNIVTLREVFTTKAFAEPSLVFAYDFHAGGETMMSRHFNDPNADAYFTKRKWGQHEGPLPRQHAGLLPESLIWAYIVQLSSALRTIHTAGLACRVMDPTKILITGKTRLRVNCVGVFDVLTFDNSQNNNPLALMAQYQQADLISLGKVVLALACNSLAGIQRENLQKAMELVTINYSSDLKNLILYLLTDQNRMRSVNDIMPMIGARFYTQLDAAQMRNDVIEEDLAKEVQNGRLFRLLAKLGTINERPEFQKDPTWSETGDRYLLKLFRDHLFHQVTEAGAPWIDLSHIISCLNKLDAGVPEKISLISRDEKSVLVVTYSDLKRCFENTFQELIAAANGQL
UniProt Q9NRV9, sequence (Q9NRV9 whole entry): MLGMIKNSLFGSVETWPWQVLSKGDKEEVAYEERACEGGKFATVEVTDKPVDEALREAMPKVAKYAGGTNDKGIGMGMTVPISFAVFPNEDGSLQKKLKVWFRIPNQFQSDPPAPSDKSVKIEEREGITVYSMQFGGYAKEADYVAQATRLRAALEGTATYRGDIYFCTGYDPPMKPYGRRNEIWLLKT
UniProt O00233, sequence (O00233 whole entry): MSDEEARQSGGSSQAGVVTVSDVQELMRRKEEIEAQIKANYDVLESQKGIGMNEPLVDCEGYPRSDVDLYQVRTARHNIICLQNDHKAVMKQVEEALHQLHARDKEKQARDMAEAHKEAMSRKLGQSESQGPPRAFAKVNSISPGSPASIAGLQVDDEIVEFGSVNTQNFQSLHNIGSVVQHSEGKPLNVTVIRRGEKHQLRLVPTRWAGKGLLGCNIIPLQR
UniProt O15431, sequence (O15431 whole entry): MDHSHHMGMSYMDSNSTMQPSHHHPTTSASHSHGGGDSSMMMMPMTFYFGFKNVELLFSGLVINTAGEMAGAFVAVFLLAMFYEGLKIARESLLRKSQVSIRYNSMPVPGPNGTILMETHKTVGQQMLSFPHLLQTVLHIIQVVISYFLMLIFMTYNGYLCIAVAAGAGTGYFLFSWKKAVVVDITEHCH
UniProt Q9NS91, sequence (Q9NS91 whole entry): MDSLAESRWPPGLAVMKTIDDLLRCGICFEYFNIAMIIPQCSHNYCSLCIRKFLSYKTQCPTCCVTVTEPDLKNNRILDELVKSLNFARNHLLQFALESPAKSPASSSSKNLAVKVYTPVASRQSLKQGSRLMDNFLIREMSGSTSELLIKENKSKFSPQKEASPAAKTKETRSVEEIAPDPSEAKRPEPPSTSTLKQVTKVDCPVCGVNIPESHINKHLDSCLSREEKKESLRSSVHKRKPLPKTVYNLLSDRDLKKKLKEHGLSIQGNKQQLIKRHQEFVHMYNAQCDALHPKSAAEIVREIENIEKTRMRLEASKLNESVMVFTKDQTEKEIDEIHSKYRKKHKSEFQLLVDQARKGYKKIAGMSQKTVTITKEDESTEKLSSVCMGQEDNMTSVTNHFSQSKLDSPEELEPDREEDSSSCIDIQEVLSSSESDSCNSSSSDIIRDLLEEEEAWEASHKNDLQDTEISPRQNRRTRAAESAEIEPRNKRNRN
UniProt O00506, sequence (O00506 whole entry, looked up): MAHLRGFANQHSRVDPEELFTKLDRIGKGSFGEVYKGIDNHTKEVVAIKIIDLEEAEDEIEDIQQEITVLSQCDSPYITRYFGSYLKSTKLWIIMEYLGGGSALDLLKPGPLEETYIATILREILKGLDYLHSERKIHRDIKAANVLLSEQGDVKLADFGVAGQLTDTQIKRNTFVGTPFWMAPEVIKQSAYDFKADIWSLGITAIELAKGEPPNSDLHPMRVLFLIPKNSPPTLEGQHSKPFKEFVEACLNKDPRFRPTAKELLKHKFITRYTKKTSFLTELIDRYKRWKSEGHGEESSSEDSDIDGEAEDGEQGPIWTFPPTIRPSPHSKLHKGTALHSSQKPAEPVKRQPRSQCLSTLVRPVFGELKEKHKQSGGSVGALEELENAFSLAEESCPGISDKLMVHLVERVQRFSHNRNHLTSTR
UniProt P78417, sequence (P78417 whole entry): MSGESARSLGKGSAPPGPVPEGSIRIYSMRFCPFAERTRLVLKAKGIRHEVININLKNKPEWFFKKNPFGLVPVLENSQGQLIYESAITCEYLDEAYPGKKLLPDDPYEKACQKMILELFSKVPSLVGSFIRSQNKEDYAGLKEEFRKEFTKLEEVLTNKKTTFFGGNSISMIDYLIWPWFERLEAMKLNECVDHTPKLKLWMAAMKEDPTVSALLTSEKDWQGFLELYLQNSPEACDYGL
UniProt P63313, sequence (P63313 whole entry): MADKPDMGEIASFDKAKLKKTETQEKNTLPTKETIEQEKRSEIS
In the case of HDGFRP2 (UniProt Q7Z4V5), the thermal stability z-score is reported as 0.576. Target RPL35A (UniProt P18077) has a thermal stability z-score of 0.893. HEBP1 (UniProt Q9NRV9) gave a thermal stability z-score of 0.436. With GSTO1 (UniProt P78417) the thermal stability z-score was 3. Target TMSB10 (UniProt P63313) has a thermal stability z-score of 0.8. Work on ALKBH5 (UniProt Q6P6C2) yielded a thermal stability z-score of 1.79. Work on MRPL49 (UniProt Q13405) yielded a thermal stability z-score of -0.298. For YIPF5 (UniProt Q969M3), the thermal stability z-score was -0.255. With TMX4 (UniProt Q9H1E5) the thermal stability z-score was -1.34. Work on ARPC3 (UniProt O15145) yielded a thermal stability z-score of 0.0284. With UniProt E9PSI1 the thermal stability z-score was -0.0572. With CBX1 (UniProt P83916) the thermal stability z-score was 0.402. Target SPG21 (UniProt Q9NZD8) has a thermal stability z-score of -0.161. TRIM44 (UniProt Q96DX7) showed a thermal stability z-score of 0.0927. With LDAH (UniProt Q9H6V9) the thermal stability z-score was -0.0856. DFFA (UniProt O00273) was tested, and the thermal stability z-score was 0.376. In the case of OPA3 (UniProt Q9H6K4), the thermal stability z-score is reported as 1.42. PAN3 (UniProt Q58A45) gave a thermal stability z-score of -0.038. For RAD18 (UniProt Q9NS91), the thermal stability z-score was -0.082. PSMD9 (UniProt O00233) gave a thermal stability z-score of -0.33. SLC31A1 (UniProt O15431) showed a thermal stability z-score of 0.126. Target TMEM9 (UniProt Q9P0T7) has a thermal stability z-score of -2.36. For LRRC42 (UniProt Q9Y546), the thermal stability z-score was -0.294. STK25 (UniProt O00506) was tested, and the thermal stability z-score was 0.466. Target AIM1 has a thermal stability z-score of -0.151. PPP2CA (UniProt P67775) gave a thermal stability z-score of 0.297. ATP5H (UniProt O75947) showed a thermal stability z-score of 0.72. Work on PPP5C (UniProt P53041) yielded a thermal stability z-score of 0.859. Target ANKRD40 (UniProt Q6AI12) has a thermal stability z-score of 0.246. Target HOMER1 (UniProt Q86YM7) has a thermal stability z-score of 0.64. With SRSF3 (UniProt P84103) the thermal stability z-score was 1.69.

Same assay, conditions: HeLa; lipoamide concentration 100 µM; arsenate co-treatment: none
HDGFRP2 (UniProt Q7Z4V5) gave a thermal stability z-score of 0.499. RPL35A (UniProt P18077) showed a thermal stability z-score of 0.484. Work on HEBP1 (UniProt Q9NRV9) yielded a thermal stability z-score of 0.615. In the case of GSTO1 (UniProt P78417), the thermal stability z-score is reported as 2.41. Work on TMSB10 (UniProt P63313) yielded a thermal stability z-score of 0.288. ALKBH5 (UniProt Q6P6C2) showed a thermal stability z-score of -0.205. MRPL49 (UniProt Q13405) showed a thermal stability z-score of 0.49. Target YIPF5 (UniProt Q969M3) has a thermal stability z-score of -0.344. Target TMX4 (UniProt Q9H1E5) has a thermal stability z-score of -1.22. ARPC3 (UniProt O15145) gave a thermal stability z-score of 0.0195. For UniProt E9PSI1, the thermal stability z-score was -0.622. CBX1 (UniProt P83916) gave a thermal stability z-score of 0.214. Target SPG21 (UniProt Q9NZD8) has a thermal stability z-score of 0.136. For TRIM44 (UniProt Q96DX7), the thermal stability z-score was -0.409. For LDAH (UniProt Q9H6V9), the thermal stability z-score was -0.00844. Work on DFFA (UniProt O00273) yielded a thermal stability z-score of 0.555. Work on OPA3 (UniProt Q9H6K4) yielded a thermal stability z-score of 0.732. For PAN3 (UniProt Q58A45), the thermal stability z-score was 0.0344. Target RAD18 (UniProt Q9NS91) has a thermal stability z-score of -0.0293. PSMD9 (UniProt O00233) gave a thermal stability z-score of 0.295. For SLC31A1 (UniProt O15431), the thermal stability z-score was 0.215. TMEM9 (UniProt Q9P0T7) gave a thermal stability z-score of -2. Target LRRC42 (UniProt Q9Y546) has a thermal stability z-score of -0.0469. With STK25 (UniProt O00506) the thermal stability z-score was -0.862. AIM1 was tested, and the thermal stability z-score was -0.209. PPP2CA (UniProt P67775) gave a thermal stability z-score of 0.0726. ATP5H (UniProt O75947) was tested, and the thermal stability z-score was 0.597. With PPP5C (UniProt P53041) the thermal stability z-score was 0.0455. For ANKRD40 (UniProt Q6AI12), the thermal stability z-score was 0.087. Target HOMER1 (UniProt Q86YM7) has a thermal stability z-score of 0.353. In the case of SRSF3 (UniProt P84103), the thermal stability z-score is reported as 0.987.

The targets below were run with O=[As]([O-])(O)O.[K+] [potassium arsenate] in the same assay as above. Settings: HeLa; arsenate concentration 1 mM.
Procedure: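 Cellular thermal proteome profiling in HeLa cells treated with 1 mM arsenate for 1 h (DMSO pretreatment), heated to ten temperatures (37-66.3 °C). Soluble protein was quantified by TMT mass spectrometry relative to DMSO controls; the thermal stability score was transformed to a z-score; mean of n = 3 experiments.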
HDGFRP2 (UniProt Q7Z4V5) was tested, and the thermal stability z-score was 0.126. RPL35A (UniProt P18077) was tested, and the thermal stability z-score was -0.477. In the case of HEBP1 (UniProt Q9NRV9), the thermal stability z-score is reported as -0.000791. Target GSTO1 (UniProt P78417) has a thermal stability z-score of 0.362. Work on TMSB10 (UniProt P63313) yielded a thermal stability z-score of 0.014. In the case of ALKBH5 (UniProt Q6P6C2), the thermal stability z-score is reported as 2.96. With MRPL49 (UniProt Q13405) the thermal stability z-score was -0.254. In the case of YIPF5 (UniProt Q969M3), the thermal stability z-score is reported as -0.18. TMX4 (UniProt Q9H1E5) showed a thermal stability z-score of 0.19. ARPC3 (UniProt O15145) was tested, and the thermal stability z-score was -0.254. With UniProt E9PSI1 the thermal stability z-score was -0.346. CBX1 (UniProt P83916) was tested, and the thermal stability z-score was 0.0814. For SPG21 (UniProt Q9NZD8), the thermal stability z-score was 0.634. TRIM44 (UniProt Q96DX7) was tested, and the thermal stability z-score was 0.419. LDAH (UniProt Q9H6V9) was tested, and the thermal stability z-score was 0.0377. Work on DFFA (UniProt O00273) yielded a thermal stability z-score of 0.443. OPA3 (UniProt Q9H6K4) was tested, and the thermal stability z-score was 0.247. Target PAN3 (UniProt Q58A45) has a thermal stability z-score of -0.257. For RAD18 (UniProt Q9NS91), the thermal stability z-score was -0.0799. For PSMD9 (UniProt O00233), the thermal stability z-score was -0.281. SLC31A1 (UniProt O15431) was tested, and the thermal stability z-score was 0.321. TMEM9 (UniProt Q9P0T7) was tested, and the thermal stability z-score was -0.267. LRRC42 (UniProt Q9Y546) showed a thermal stability z-score of -0.0558. Work on STK25 (UniProt O00506) yielded a thermal stability z-score of 0.496. For AIM1, the thermal stability z-score was 0.00488. For PPP2CA (UniProt P67775), the thermal stability z-score was -1.92. In the case of ATP5H (UniProt O75947), the thermal stability z-score is reported as 0.504. PPP5C (UniProt P53041) was tested, and the thermal stability z-score was 0.649. In the case of ANKRD40 (UniProt Q6AI12), the thermal stability z-score is reported as 0.146. For HOMER1 (UniProt Q86YM7), the thermal stability z-score was 1.54. SRSF3 (UniProt P84103) showed a thermal stability z-score of -0.485.
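Note: each temperature applied for 3 min, abundance score taken as mean log2 fold change at the two lowest temperatures, z-score obtained by mean subtraction and division by SD.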
